Data as given in PubChem BioAssay AID330 (DTP/NCI, 2004).
Values joined by “and” are separate entries in the source; they are usually repeats but may differ in a detail not shown here. Equal values may be shown once. Toxic doses and inconclusive results are not listed.

Tested on: P388 leukemia ip, CD2F1 mice, survival T/C
Assay: NCI In Vivo Anticancer Drug Screen. Data for tumor model P388 Leukemia (intraperitoneal) in CD2F1 (CDF1) mice
Settings: endpoint: median survival time, higher = longer survival
Method in brief: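 Mice carrying the transplanted tumor received test compound or vehicle. Survival was recorded in each group, and the value is the treated-group measurement divided by that of the vehicle-treated control group.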

O=C1NC2(CCCCC2)C(=O)N1CCN(CCCl)CCCl
T/C (dose: 0.62 mg/kg/injection, schedule: Q01DX005 (iv), vehicle: other): 108 % of control | T/C (dose: 0.75 mg/kg/injection, schedule: Q01DX009 (ip), vehicle: saline): 112 % of control and 114 % of control and 122 % of control | T/C (dose: 1.25 mg/kg/injection, schedule: Q01DX001 (iv), vehicle: other): 112 % of control | T/C (dose: 1.25 mg/kg/injection, schedule: Q01DX001 (oral), vehicle: other): 101 % of control | T/C (dose: 1.25 mg/kg/injection, schedule: Q01DX005 (iv), vehicle: other): 116 % of control | T/C (dose: 1.25 mg/kg/injection, schedule: Q01DX009 (ip), vehicle: saline with Tween-80): 124 % of control | T/C (dose: 1.5 mg/kg/injection, schedule: Q01DX005 (ip), vehicle: saline): 118 % of control and 119 % of control | T/C (dose: 1.5 mg/kg/injection, schedule: Q01DX005 (ip), vehicle: suspension in saline): 119 % of control | T/C (dose: 1.5 mg/kg/injection, schedule: Q01DX005 (iv), vehicle: suspension in saline): 101 % of control | T/C (dose: 1.5 mg/kg/injection, schedule: Q01DX009 (ip), vehicle: Klucel (hydroxypropylcellulose) (HPC)): 164 % of control | T/C (dose: 1.5 mg/kg/injection, schedule: Q01DX009 (ip), vehicle: other): 120 % of control | T/C (dose: 2.5 mg/kg/injection, schedule: Q01DX001 (ip), vehicle: other): 121 % of control | T/C (dose: 2.5 mg/kg/injection, schedule: Q01DX001 (iv), vehicle: other): 109 % of control | T/C (dose: 2.5 mg/kg/injection, schedule: Q01DX005 (iv), vehicle: clinical formulation): 115 % of control and 121 % of control | T/C (dose: 2.5 mg/kg/injection, schedule: Q01DX005 (iv), vehicle: other): 109 % of control | T/C (dose: 2.5 mg/kg/injection, schedule: Q01DX005 (oral), vehicle: other): 100 % of control | T/C (dose: 2.5 mg/kg/injection, schedule: Q01DX009 (ip), vehicle: clinical formulation): 152 % of control and 154 % of control and 180 % of control | T/C (dose: 2.5 mg/kg/injection, schedule: Q01DX009 (ip), vehicle: other): 151 % of control | T/C (dose: 2.5 mg/kg/injection, schedule: Q01DX009 (ip), vehicle: saline with Tween-80): 167 % of control | T/C (dose: 2.5 mg/kg/injection, schedule: Q01DX009 (oral), vehicle: other): 109 % of control | T/C (dose: 3.0 mg/kg/injection, schedule: Q01DX005 (iv), vehicle: suspension in saline): 105 % of control | T/C (dose: 3.0 mg/kg/injection, schedule: Q01DX009 (ip), vehicle: Klucel (hydroxypropylcellulose) (HPC)): 166 % of control and 169 % of control | T/C (dose: 3.0 mg/kg/injection, schedule: Q01DX009 (ip), vehicle: saline with Tween-80): 163 % of control | T/C (dose: 3.0 mg/kg/injection, schedule: Q01DX009 (oral), vehicle: Klucel (hydroxypropylcellulose) (HPC)): 108 % of control | T/C (dose: 3.0 mg/kg/injection, schedule: Q01DX009 (oral), vehicle: saline): 102 % of control | T/C (dose: 5.0 mg/kg/injection, schedule: Q01DX001 (iv), vehicle: other): 105 % of control | T/C (dose: 5.0 mg/kg/injection, schedule: Q01DX001 (oral), vehicle: other): 99 % of control | T/C (dose: 5.0 mg/kg/injection, schedule: Q01DX005 (iv), vehicle: clinical formulation): 156 % of control | T/C (dose: 5.0 mg/kg/injection, schedule: Q01DX005 (iv), vehicle: other): 113 % of control | T/C (dose: 5.0 mg/kg/injection, schedule: Q01DX005 (oral), vehicle: other): 99 % of control | T/C (dose: 5.0 mg/kg/injection, schedule: Q01DX009 (ip), vehicle: other): 175 % of control | T/C (dose: 5.0 mg/kg/injection, schedule: Q01DX009 (oral), vehicle: other): 114 % of control | T/C (dose: 6.0 mg/kg/injection, schedule: Q01DX005 (ip), vehicle: suspension in saline): 164 % of control | T/C (dose: 6.0 mg/kg/injection, schedule: Q01DX005 (iv), vehicle: suspension in saline): 108 % of control | T/C (dose: 6.0 mg/kg/injection, schedule: Q01DX009 (ip), vehicle: other): 157 % of control | T/C (dose: 6.0 mg/kg/injection, schedule: Q01DX009 (oral), vehicle: Klucel (hydroxypropylcellulose) (HPC)): 102 % of control | T/C (dose: 6.0 mg/kg/injection, schedule: Q01DX009 (oral), vehicle: saline): 108 % of control | T/C (dose: 6.25 mg/kg/injection, schedule: Q01DX009 (oral), vehicle: Klucel (hydroxypropylcellulose) (HPC)): 112 % of control and 113 % of control | T/C (dose: 8.0 mg/kg/injection, schedule: Q01DX001 (ip), vehicle: suspension in saline): 108 % of control and 116 % of control | T/C (dose: 10.0 mg/kg/injection, schedule: Q01DX001 (iv), vehicle: other): 116 % of control | T/C (dose: 10.0 mg/kg/injection, schedule: Q01DX001 (oral), vehicle: other): 107 % of control | T/C (dose: 10.0 mg/kg/injection, schedule: Q01DX005 (iv), vehicle: clinical formulation): 104 % of control | T/C (dose: 10.0 mg/kg/injection, schedule: Q01DX005 (oral), vehicle: other): 112 % of control | T/C (dose: 10.0 mg/kg/injection, schedule: Q01DX009 (ip), vehicle: clinical formulation): 170 % of control | T/C (dose: 10.0 mg/kg/injection, schedule: Q01DX009 (ip), vehicle: saline with Tween-80): 121 % of control | T/C (dose: 10.0 mg/kg/injection, schedule: Q01DX009 (oral), vehicle: other): 116 % of control | T/C (dose: 12.0 mg/kg/injection, schedule: Q01DX005 (ip), vehicle: saline): 163 % of control and 167 % of control | T/C (dose: 12.0 mg/kg/injection, schedule: Q01DX009 (ip), vehicle: Klucel (hydroxypropylcellulose) (HPC)): 121 % of control | T/C (dose: 12.0 mg/kg/injection, schedule: Q01DX009 (ip), vehicle: other): 168 % of control | T/C (dose: 12.0 mg/kg/injection, schedule: Q01DX009 (oral), vehicle: Klucel (hydroxypropylcellulose) (HPC)): 117 % of control | T/C (dose: 12.0 mg/kg/injection, schedule: Q01DX009 (oral), vehicle: other): 100 % of control | T/C (dose: 12.0 mg/kg/injection, schedule: Q01DX009 (oral), vehicle: saline): 110 % of control | T/C (dose: 12.5 mg/kg/injection, schedule: Q01DX009 (oral), vehicle: Klucel (hydroxypropylcellulose) (HPC)): 115 % of control and 120 % of control | T/C (dose: 15.0 mg/kg/injection, schedule: Q01DX009 (ip), vehicle: Klucel (hydroxypropylcellulose) (HPC)): 100 % of control | T/C (dose: 16.0 mg/kg/injection, schedule: Q01DX001 (ip), vehicle: suspension in saline): 104 % of control | T/C (dose: 20.0 mg/kg/injection, schedule: Q01DX001 (ip), vehicle: other): 151 % of control | T/C (dose: 20.0 mg/kg/injection, schedule: Q01DX001 (iv), vehicle: other): 122 % of control | T/C (dose: 20.0 mg/kg/injection, schedule: Q01DX001 (oral), vehicle: other): 104 % of control | T/C (dose: 20.0 mg/kg/injection, schedule: Q01DX005 (oral), vehicle: other): 109 % of control | T/C (dose: 24.0 mg/kg/injection, schedule: Q01DX005 (ip), vehicle: saline): 181 % of control | T/C (dose: 24.0 mg/kg/injection, schedule: Q01DX005 (iv), vehicle: suspension in saline): 117 % of control | T/C (dose: 24.0 mg/kg/injection, schedule: Q01DX009 (oral), vehicle: Klucel (hydroxypropylcellulose) (HPC)): 122 % of control | T/C (dose: 24.0 mg/kg/injection, schedule: Q01DX009 (oral), vehicle: other): 107 % of control | T/C (dose: 24.0 mg/kg/injection, schedule: Q01DX009 (oral), vehicle: saline): 113 % of control | T/C (dose: 25.0 mg/kg/injection, schedule: Q01DX001 (ip), vehicle: Klucel (hydroxypropylcellulose) (HPC)): 168 % of control | T/C (dose: 25.0 mg/kg/injection, schedule: Q01DX001 (ip), vehicle: saline): 175 % of control | T/C (dose: 32.0 mg/kg/injection, schedule: Q01DX001 (ip), vehicle: suspension in saline): 101 % of control | T/C (dose: 32.0 mg/kg/injection, schedule: Q01DX001 (oral), vehicle: suspension in saline): 100 % of control | T/C (dose: 40.0 mg/kg/injection, schedule: Q01DX001 (ip), vehicle: other): 181 % of control | T/C (dose: 40.0 mg/kg/injection, schedule: Q01DX001 (oral), vehicle: other): 101 % of control | T/C (dose: 40.0 mg/kg/injection, schedule: Q01DX005 (oral), vehicle: other): 118 % of control | T/C (dose: 40.0 mg/kg/injection, schedule: Q01DX009 (oral), vehicle: other): 115 % of control | T/C (dose: 48.0 mg/kg/injection, schedule: Q01DX009 (oral), vehicle: Klucel (hydroxypropylcellulose) (HPC)): 119 % of control | T/C (dose: 48.0 mg/kg/injection, schedule: Q01DX009 (oral), vehicle: other): 103 % of control | T/C (dose: 48.0 mg/kg/injection, schedule: Q01DX009 (oral), vehicle: saline): 119 % of control | T/C (dose: 50.0 mg/kg/injection, schedule: Q01DX009 (oral), vehicle: Klucel (hydroxypropylcellulose) (HPC)): 155 % of control | T/C (dose: 64.0 mg/kg/injection, schedule: Q01DX001 (ip), vehicle: saline): 163 % of control | T/C (dose: 64.0 mg/kg/injection, schedule: Q01DX001 (ip), vehicle: suspension in saline): 101 % of control | T/C (dose: 64.0 mg/kg/injection, schedule: Q01DX001 (oral), vehicle: saline): 99 % of control | T/C (dose: 64.0 mg/kg/injection, schedule: Q01DX001 (oral), vehicle: suspension in saline): 106 % of control and 108 % of control | T/C (dose: 96.0 mg/kg/injection, schedule: Q01DX009 (oral), vehicle: other): 107 % of control | T/C (dose: 100.0 mg/kg/injection, schedule: Q01DX009 (oral), vehicle: Klucel (hydroxypropylcellulose) (HPC)): 120 % of control | T/C (dose: 128.0 mg/kg/injection, schedule: Q01DX001 (oral), vehicle: saline): 99 % of control | T/C (dose: 128.0 mg/kg/injection, schedule: Q01DX001 (oral), vehicle: suspension in saline): 102 % of control and 109 % of control | T/C (dose: 256.0 mg/kg/injection, schedule: Q01DX001 (oral), vehicle: saline): 107 % of control | T/C (dose: 256.0 mg/kg/injection, schedule: Q01DX001 (oral), vehicle: suspension in saline): 103 % of control and 105 % of control
